Columns and labels:
[1] = tested on: extracellular HIV-1 Tat release from HEK293T cells; test: HIV-1 Tat secretion assay; assay type: cell-based, human
[2] = tested on: VSV-G pseudotyped HIV-1NL4.3E-R-Luc production by HEK293T cells; assay type: cell-based
rat Na^+,K^+-ATPase = conditions: ref Emanuel et al., 1988; cited from earlier work
[3] = tested on: HIV-1BRU infectivity in Jurkat cells; assay type: cell-based; conditions: P < 0.01
[4] = tested on: wt HIV-1BRU production by HEK293T cells; assay type: cell-based; conditions: p24 ELISA; ouabain; P<0.01 over untreated
[5] = tested on: VSV-G-pseudotyped HIV-1NL4.3E-R-Luc infection of Jurkat cells; assay type: cell-based
[6] = tested on: rat Na^+,K^+-ATPase α1 (interaction with Tat); test: Co-immunoprecipitation of Tat with transfected rat Na^+,K^+-ATPase α1; conditions: HEK293T transfected with rat α1 constructs and Tat86-TK / Tat11-TK
[7] = tested on: HIV-1BRU infectivity in primary CD4 + lymphocytes; assay type: cell-based; conditions: p24 at 72 h, P < 0.01
HEK293T cells = conditions: ouabain 15 h
[8] = tested on: Na^+,K^+-ATPase α1 subunit (interaction with Tat); test: Co-immunoprecipitation of Tat with endogenous Na^+,K^+-ATPase α1 subunit; assay type: cell-based, human; conditions: HEK293T, Tat86 transfected; ouabain 25 μM, 4 h
[9] = tested on: VSV-G-pseudotyped HIV-1NL4.3E-R-Luc infectivity in Jurkat cells; assay type: cell-based
[10] = tested on: HIV-1 LTR transactivation in HL3T1 cells by supernatants of Tat86-transfected HEK293T cells; test: Transcellular transactivation assay; assay type: cell-based; conditions: ouabain 25 μM, 4 h; HL3T1 24 h; CAT ELISA
HIV-1 replication = conditions: ref Ewart et al., 2004; cited from earlier work
[11] = target: Tat86 used in surface plasmon resonance (HIV-1 (strain HXB2), UniProt P04608 1-86); test: SPR

heparin
amount of free Tat-TK protein in the supernatant ([1]; HEK293T, soluble heparin 25 μM): increased

C[C@@H]1O[C@@H](O[C@H]2C[C@@H](O)[C@]3(CO)[C@H]4[C@H](O)C[C@]5(C)[C@@H](C6=CC(=O)OC6)CC[C@]5(O)[C@@H]4CC[C@]3(O)C2)[C@H](O)[C@H](O)[C@H]1O [ouabain]
production of VSV-G pseudotyped virions [2]: significantly decreased the production of VSV-G pseudotyped virions | sensitivity of rat Na^+,K^+-ATPase enzyme to ouabain (rat Na^+,K^+-ATPase): insensitive to ouabain | viral integration (Alu-PCR) by HIV-1BRU produced in presence of ouabain [3]: reduced viral integration | infectivity of HIV-1BRU produced in presence of ouabain ([3]; p24 at 72 h): markedly less infectious | production of wt HIV-1BRU virions [4]: The same was also observed for wt HIV-1BRU virions | effect of ouabain present at infection on virions produced without ouabain [5]: unaffected by the presence of the drug | co-immunoprecipitation with Tat / ouabain effect, rat α1 [6]: binding is not sensitive to ouabain | infectivity of HIV-1BRU produced in presence of ouabain [7]: markedly less infectious | cell toxicity during virus production (HEK293T cells): did not exert significant cell toxicity | effect on Tat-α1 co-immunoprecipitation (endogenous α1) [8]: abolished this interaction | effect on Tat protein production ([1]; protein levels in whole cell extracts, ouabain 25 μM): did not affect Tat protein production | infectivity of virions produced in presence of ouabain [9]: markedly less infectious | viral integration (Alu-PCR) by virions produced in presence of ouabain [9]: reduced viral integration | effect of ouabain on transcellular transactivation [10]: blocked transcellular transactivation

CCN(c1nc(N)c(C(=O)NC(=N)N)nc1Cl)C(C)C [EIPA, 5-(N-ethyl-N-isopropyl)amiloride]
effect on HIV-1 replication (HIV-1 replication): known to limit HIV-1 replication

TRRNSVFQQGMKN (peptide, UniProt P06685 939-951, looked up) [synthetic P2 peptide]
IC50 [11]: 10 µM

B1: PMIX, equimolar mixture of the individual P1, P2 and P3 peptides (other, rat)
peptide 1: YEQAESDIMKRQPRNPKTDK
peptide 2: TRRNSVFQQGMKN
peptide 3: LIIRRRPGGWVEKETYY
IC50 [11]: 0.5 µM

From paper PMC5514404 (EBioMedicine, 2017)
